Measurements published in ChEMBL document CHEMBL5518177, “Discovery of GPX4 inhibitors through FP-based high-throughput screening” (Eur J Med Chem, 2024).
The source made the active and inactive calls. The rule behind the calls is not given here.

Experiments:
[1] = Binding affinity to N-terminal 6His-TEV-tagged recombinant human GPX4-U46C-C10A-C66A mutant (Met1 to Phe170 residues) expressed in Escherichia coli BL21 (DE3) cells incubated for 20 mins in presence of FITC-labeled peptide by fluorescence polarization based competitive binding assay; format: cell-based
[2] = Inhibition of N-terminal 6His-TEV-tagged recombinant human GPX4-U46C-C10A-C66A mutant (Met1 to Phe170 residues) expressed in Escherichia coli BL21 (DE3) cells incubated for 20 mins by fluorescence polarization based high-throughput screening assay
[3] = Inhibition of N-terminal 6His-TEV-tagged recombinant human GPX4-U46C-C10A-C66A mutant (Met1 to Phe170 residues) expressed in Escherichia coli BL21 (DE3) cells using tert-butyl hydroperoxide as substrate preincubated for 10 mins in presence of NADPH and GSH followed by substrate addition and measured after 30 mins by absorbance based plate reader analysis
[4] = Binding affinity to N-terminal 6His-TEV-tagged recombinant human GPX4-U46C-C10A-C66A mutant (Met1 to Phe170 residues) expressed in Escherichia coli BL21 (DE3) cells assessed as dissociation constant incubated for 10 mins by microscale thermophoresis assay
[5] = species on record: Homo sapiens; assay: Inhibition of N-terminal 6His-TEV-tagged recombinant human GPX4-U46C-C10A-C66A mutant (Met1 to Phe170 residues) expressed in Escherichia coli BL21 (DE3) cells using tert-butyl peroxide as substrate assessed as Vmax at 10 uM preincubated for 10 mins in presence of NADPH and GSH followed by substrate …; conditions: time 40.0 min
[6] = species on record: Homo sapiens; assay: (§1) Inhibition of N-terminal 6His-TEV-tagged recombinant human GPX4-U46C-C10A-C66A mutant (Met1 to Phe170 residues) expressed in Escherichia coli BL21 (DE3) cells using tert-butyl peroxide as substrate assessed as Vmax at 20 uM preincubated for 10 mins in presence of NADPH and GSH followed by substrate addition and measured after 30 mins by absorbance based plate reader analysis (reference value: 0.556 +/- 0.058 nM/min); conditions: time 40.0 min
[7] = species on record: Homo sapiens; assay: as §1, with “30” for “20”; conditions: time 40.0 min
[8] = species on record: Homo sapiens; assay: as §1, with “40” for “20”; conditions: time 40.0 min
[9] = species on record: Homo sapiens; assay: as §1, with “50” for “20”; conditions: time 40.0 min
[10] = species on record: Homo sapiens; assay: Inhibition of N-terminal 6His-TEV-tagged recombinant human GPX4-U46C-C10A-C66A mutant (Met1 to Phe170 residues) expressed in Escherichia coli BL21 (DE3) cells using tert-butyl peroxide as substrate assessed as Km at 10 uM preincubated for 10 mins in presence of NADPH and GSH followed by substrate …; conditions: time 40.0 min
[11] = species on record: Homo sapiens; assay: as §1, with “Km” for “Vmax”, “36.04” for “0.556”, “7.80 microM)” for “0.058 nM/min)”; conditions: time 40.0 min
[12] = species on record: Homo sapiens; assay: as §1, with “Km” for “Vmax”, “30” for “20”, “36.04” for “0.556”, “7.80 microM)” for “0.058 nM/min)”; conditions: time 40.0 min
[13] = species on record: Homo sapiens; assay: as §1, with “Km” for “Vmax”, “40” for “20”, “36.04” for “0.556”, “7.80 microM)” for “0.058 nM/min)”; conditions: time 40.0 min
[14] = species on record: Homo sapiens; assay: as §1, with “Km” for “Vmax”, “50” for “20”, “36.04” for “0.556”, “7.80 microM)” for “0.058 nM/min)”; conditions: time 40.0 min
[15] = species on record: Homo sapiens; assay: Inhibition of N-terminal 6His-TEV-tagged recombinant human GPX4-U46C-C10A-C66A mutant (Met1 to Phe170 residues) expressed in Escherichia coli BL21 (DE3) cells at 1 to 100 uM incubated for 20 mins by fluorescence polarization based high-throughput screening assay; conditions: dose 1-100 µM
[16] = species on record: Homo sapiens; assay: Non-covalent binding to N-terminal 6His-TEV-tagged recombinant human GPX4-U46C-C10A-C66A mutant (Met1 to Phe170 residues) expressed in Escherichia coli BL21 (DE3) cells by mass spectrum analysis
[17] = species on record: Homo sapiens; assay: Reversible inhibition of N-terminal 6His-TEV-tagged recombinant human GPX4-U46C-C10A-C66A mutant (Met1 to Phe170 residues) expressed in Escherichia coli BL21 (DE3) cells by mass spectrum analysis

## Cc1c(NCS(=O)(=O)O)c(=O)n(-c2cccc(Br)c2)n1C
[1]
  IC50: 10.3 µM

## Cc1c(N(C)CS(=O)(=O)O)c(=O)n(-c2ccccc2)n1C [DIPYRONE SODIUM]
[1]
  IC50: 4.75 µM
[2]
  IC50: 1.4 µM
[3]
  IC50: 31.1 µM
[4]
  Kd: 5.23 µM
[5]
  Vmax: 0.439 nM/min
[6]
  Vmax: 0.361 nM/min
[7]
  Vmax: 0.345 nM/min
[8]
  Vmax: 0.306 nM/min
[9]
  Vmax: 0.289 nM/min
[10]
  Km: 23.4 µM
[11]
  Km: 17.2 µM
[12]
  Km: 15.7 µM
[13]
  Km: 12.1 µM
[14]
  Km: 11.9 µM
[15]
  inhibition: Active
[16]
  Activity: Active
[17]
  inhibition: Dose-Dependent Effect

## Cc1c(NCC(=O)O)c(=O)n(-c2ccccc2)n1C
[1]
  IC50: > 100 µM

## CC(C)c1c(NCS(=O)(=O)O)c(=O)n(-c2ccccc2)n1C
[1]
  IC50: 4.6 µM

## Cc1c(NCS(=O)(=O)O)c(=O)n(-c2ccc(-c3ccoc3)cc2)n1C
[1]
  IC50: 8.51 µM

## C=CC1=C(C)C(=O)N/C1=C\c1[nH]c(Cc2[nH]c(/C=C3\NC(=O)C(C)=C3C=C)c(C)c2CCC(=O)O)c(CCC(=O)O)c1C
[2]
  IC50: 4.58 µM
[15]
  inhibition: Active

## Cc1c(S(=O)(=O)O)oc2c1C(=O)C(=O)c1c-2ccc2c1CCCC2(C)C [SODIUM TANSHINONE IIA SULFONATE]
[2]
  IC50: 13.8 µM
[15]
  inhibition: Active

## Cc1c(NCS(=O)(=O)O)c(=O)n(C2CCCCC2)n1C
[1]
  IC50: 2.53 µM

## Cn1c(CO)c(NCS(=O)(=O)O)c(=O)n1-c1ccccc1
[1]
  IC50: 22.7 µM

## Cc1c(NCS(=O)(=O)O)c(=O)n(-c2ccccc2)n1C
[1]
  IC50: 2.37 µM

## O=C(O)[C@H](O)Cc1ccc(O)c(O)c1
[2]
  IC50: 6.54 µM
[15]
  inhibition: Active

## Cc1c(NCS(=O)(=O)O)c(=O)n(-c2ccccc2)n1C(C)C
[1]
  IC50: > 100 µM

## O=c1oc2cc(O)ccc2s1 [TIOXOLONE]
[2]
  IC50: 5.18 µM
[15]
  inhibition: Active

## CCCc1c(NCS(=O)(=O)O)c(=O)n(-c2ccccc2)n1C
[1]
  IC50: > 100 µM

## CNC(=O)CN(C)c1c(C)n(C)n(-c2ccccc2)c1=O
[1]
  IC50: > 100 µM

## Cc1c(NCS(=O)(=O)O)c(=O)n(-c2cccc(-c3ccc(Br)cc3)c2)n1C
[1]
  IC50: 9.63 µM

## Cn1c(C2CC2)c(NCS(=O)(=O)O)c(=O)n1-c1ccccc1
[1]
  IC50: 4.65 µM

## N[C@@H](CO)C(=O)NNCc1ccc(O)c(O)c1O
[2]
  IC50: 7.52 µM
[15]
  inhibition: Active

## CCc1c(NCS(=O)(=O)O)c(=O)n(-c2ccccc2)n1C
[1]
  IC50: > 100 µM

## Cc1c(NCS(=O)(=O)O)c(=O)n(-c2ccccn2)n1C
[1]
  IC50: 3.54 µM

## Cc1c(NCS(=O)(=O)O)c(=O)n(-c2cccc(-c3ccccc3)c2)n1C
[1]
  IC50: > 100 µM

## Cc1c(NCS(=O)(=O)O)c(=O)n(-c2ccccc2-c2ccccc2)n1C
[1]
  IC50: 4.21 µM

## Cc1c(NCS(=O)(=O)O)c(=O)n(-c2ccc(-c3ccccc3)cc2)n1C
[1]
  IC50: > 100 µM

## CCCn1c(C)c(NCS(=O)(=O)O)c(=O)n1-c1ccccc1
[1]
  IC50: 6.02 µM

## Cc1c(NCS(=O)(=O)O)c(=O)n(-c2ccccc2-c2ccoc2)n1C
[1]
  IC50: 5.74 µM

## Cc1c(NCS(=O)(=O)O)c(=O)n(-c2cccc(-c3ccoc3)c2)n1C
[1]
  IC50: 5.89 µM

## Cc1c(NCS(=O)(=O)O)c(=O)n(-c2ccccc2Br)n1C
[1]
  IC50: 12.1 µM
